Assay results taken from US20070255061A1, “5-Fluoro-, Chloro-and Cyano-Pyridin-2-Yl-Tetrazoles as Ligands of the Metabotropic Glutamate Receptor-5” (AstraZeneca AB, priority 2003, published 2007).
≈ marks a conversion by molar mass, not a printed value.

Columns and labels:
[1] = Aqueous solubility in 0.1 M phosphate buffer pH 7.4; format: physicochemical; settings: for solubility at 24 h: 21 °C, aqueous buffer, thermodynamic from solid, 0.1 M phosphate buffer, pH 7.4, 20 to 22° C., read-out: aq. Solubility
Protocol: Duplicate of 1-2 mg of the test compound are incubated in 0.1 M phosphate buffer, pH 7.4, in 2 mL glass-vials on a plate bed shaker (IKA®-Schüttler MTS-4, IKA Labortechnik) at 300 rpm at a temperature of 20 to 22° C. for 24 hours. Non-dissolved material is centrifugated down from the saturated solution at 3000 rpm for 2×15 minutes at 22° C. (Multifuge® 3 S-R, Heraeus). The aqueous supernatant is transferred to glass-vials and aliquotes used for quantitative analysis using reversed HPLC with MS confirmation of compound identity. Quantification is performed by the UV-trace of the chromatogram against a calibration curve, 0-200 μM, of the test compound dissolved in DMSO at the wavelength of a positive inflection point of the UV spectrum. The reported values (aq. solubility) are the mean values of duplicate HPLC-analysis of two independent incubations.

[2] = Metabolic stability in pooled human liver microsomes; format: in vitro ADME; settings: for h.mic. FH (fraction escaping hepatic clearance): 1 μM compound, 0.5 mg microsomal protein/mL, 37° C., calculated from halflife, fu=1; for human microsomal metabolic stability (h.mic. FH) compared to the unsubstituted analog (Z=H): incubated with human microsomes
Protocol: The compounds were incubated (at 1 μM) with characterized, pooled human liver microsomes (0.5 mg microsomal protein/mL incubation) at 37° C. in phosphate buffer (50 mM potassium phosphate, pH 7.4) The incubations were started by the addition of a cofactor (1 mM NADPH (Nicotinamide adenine dinucleotide phosphate in reduced form) and terminated by the addition of acetonitrile (1:1). The incubations were analyzed by LC/MS and a time curve for the disappearance of the parent compound was constructed. Control incubations without microsomes, or with acetonitrile addition before the addition of the cofactor, were used to check for non-enzymatic degradation/disappearance. […] The fraction escaping hepatic clearance, FH, given in %, was calculated from the hepatic clearance according to the following equation: [formula] Thus, the higher the FH, the more metabolically stable the compound. Solubility

[3] = biological target: T1, human mGluR5d (Homo sapiens, UniProt P41594); assay: FLIPR analysis of [Ca2+]i mobilization, antagonist activity; format: cell-based; settings: cells expressing human mGluR5d, read-out: IC50 mGluR5
T1 construct: expressed in transfected cells; GHEK cells stably expressing the receptor are named only for the IP3 assay
T1 sequence (P41594 21-942 isoform P41594-3 limits assumed): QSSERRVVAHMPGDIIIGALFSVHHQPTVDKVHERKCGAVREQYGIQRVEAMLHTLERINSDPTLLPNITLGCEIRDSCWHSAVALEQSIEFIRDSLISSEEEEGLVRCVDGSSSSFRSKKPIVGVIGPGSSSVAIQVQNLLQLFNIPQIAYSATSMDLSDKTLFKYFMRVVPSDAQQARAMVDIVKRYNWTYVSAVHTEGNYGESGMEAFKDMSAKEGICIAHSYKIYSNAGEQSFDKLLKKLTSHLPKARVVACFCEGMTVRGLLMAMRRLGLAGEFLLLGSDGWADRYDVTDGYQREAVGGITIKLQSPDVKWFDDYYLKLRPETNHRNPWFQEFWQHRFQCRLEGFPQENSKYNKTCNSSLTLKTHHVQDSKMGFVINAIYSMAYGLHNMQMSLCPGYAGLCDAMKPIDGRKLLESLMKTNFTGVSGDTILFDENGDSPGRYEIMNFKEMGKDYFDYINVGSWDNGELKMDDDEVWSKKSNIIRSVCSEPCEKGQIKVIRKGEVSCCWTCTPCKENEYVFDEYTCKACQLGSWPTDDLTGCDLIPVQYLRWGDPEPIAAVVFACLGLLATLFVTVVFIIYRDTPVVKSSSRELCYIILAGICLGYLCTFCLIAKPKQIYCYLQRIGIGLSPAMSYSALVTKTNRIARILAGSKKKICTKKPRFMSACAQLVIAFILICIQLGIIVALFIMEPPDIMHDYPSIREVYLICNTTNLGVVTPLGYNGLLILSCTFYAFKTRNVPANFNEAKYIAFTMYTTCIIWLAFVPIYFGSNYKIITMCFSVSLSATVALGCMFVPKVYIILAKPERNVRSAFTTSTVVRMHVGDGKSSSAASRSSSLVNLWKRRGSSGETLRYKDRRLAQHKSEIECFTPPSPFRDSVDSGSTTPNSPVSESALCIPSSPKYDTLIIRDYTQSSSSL
Protocol: FLIPR experiments were done using a laser setting of 0.800 W and a 0.4 second CCD camera shutter speed. Each FLIPR experiment was initiated with 160 μl of buffer present in each well of the cell plate. After each addition of the compound, the fluorescence signal was sampled 50 times at 1 second intervals followed by 3 samples at 5 second intervals. Responses were measured as the peak height of the response within the sample period. EC50 and IC50 determinations were made from data obtained from 8-point concentration response curves (CRC) performed in duplicate. Agonist CRC were generated by scaling all responses to the maximal response observed for the plate. Antagonist block of the agonist challenge was normalized to the average response of the agonist challenge in 14 control wells on the same plate.
Cell cultures in the 96-well plates were loaded with a 4 μM solution of acetoxymethyl ester form of the fluorescent calcium indicator fluo-3 (Molecular Probes, Eugene, Oreg.) in 0.01% pluronic.
Each FLIPR experiment was initiated with 160 μl of buffer present in each well of the cell plate. […] After each addition the fluorescence signal was sampled 50 times at 1 second intervals followed by 3 samples at 5 second intervals. Responses were measured as the peak height of the response within the sample period. […]

| Structure (SMILES) | solubility at 24 h [1] | increase in solubility compared to the corresponding bromo derivative (Z=Br) ([1]; aq. solubility) | h.mic. FH (fraction escaping hepatic clearance) [2] | human microsomal metabolic stability (h.mic. FH) compared to the unsubstituted analog (Z=H) [2] | IC50 [3] |
| --- | --- | --- | --- | --- | --- |
| N#Cc1cc(F)cc(-n2nnc(-c3ccc(F)cn3)n2)c1 [3-Fluoro-5-[5-(5-fluoropyridin-2-yl)-2H-tetrazol-2-yl]benzonitrile] | 4.3 µM (≈ 1.22 µg/mL) | 22 fold | 71% | significantly more stable |  |
| N#Cc1cc(F)cc(-n2nnc(-c3ccc(Br)cn3)n2)c1 [3-[5-(5-bromopyridin-2-yl)-2H-tetrazol-2-yl]-5-fluorobenzonitrile] | 0.2 µM (≈ 0.069 µg/mL) |  | 92% | significantly higher human metabolic stability |  |
| N#Cc1cc(F)cc(-n2nnc(-c3ccccn3)n2)c1 [3-fluoro-5-(5-pyridin-2-yl-2H-tetrazol-2-yl)benzonitrile] | 43 µM (≈ 11.4 µg/mL) |  | 10% |  | 12 nM |
